Results from patent US7442702B2, “Prostaglandin agonists” (priority 1997, dated 2008).

How the values were obtained:
[1] = system: expression of Bone Morphogenetic Protein 7 (BMP-7) in 293S cells transfected with EP2; experiment: Kidney regeneration assay: BMP-7 expression (Northern blot) in 293S cells transfected with EP2; type: cell-based, human; details: EP2 293S cells, 10^−6M, RNA extracted at 8, 16 and 24 hours
Procedure: (§1) Methods: 293S and EP293S cells are grown in Dulbecco's Modified Egale medium (DMEM, Gibco, BRL; Gaithersburg, Md.). […] Cells are harvested and RNA is extracted at 8, 16 and 24 hours. Northern blot analysis of total RNA ([…]) is carried out by probing the blots with ^32P-labeled BMP-7 probe. The blots are normalized for RNA loading by hybridization with ^32P-labeled 18s ribosomal RNA probe. […] Given the known role of BMP-7 in kidney regeneration and the ability of an prostaglandin agonist to induce BMP-7 expression in 293S kidney cells in a time and receptor specific manner indicates a role for prostaglandin agonist in kidney regeneration.

[2] = system: expression of Bone Morphogenetic Protein 7 (BMP-7) in wild type 293S cells; experiment: Kidney regeneration assay: BMP-7 expression (Northern blot) in wild type 293S cells; type: cell-based, human; details: parental 293S cell line, 10^−6M, RNA extracted at 8, 16 and 24 hours
Procedure: as §1

CCCCC[C@H](O)/C=C/[C@H]1[C@H](O)CC(=O)[C@@H]1C/C=C\CCCC(=O)O [PGE2, Prostaglandin E2]
induction of expression of BMP-7 [1]: induce the expression of BMP-7 in the EP2 293S cells in a time dependent manner | induction of expression of BMP-7 [2]: generally not observed
